# The source made the active and inactive calls.
# Tests used:
# Vero = assay: Vero cell toxicity, dose response, cytotoxicity control, plate reader, cherry-pick samples (AID 687020); format: functional, cell-based; settings: Chlorocebus sabaeus
# [1] = SNU-C1 cell viability reduction, dose response, CellTiter-Glo luminescence (AID 1117323); format: functional, cell-based
# [2] = control 3'UTR Renilla luciferase suppression, dose response, counter-screen for Shn3 inhibitor project, cell-based, Clone20-Shn3RL, cherry-picked (AID 624133); format: functional
# [3] = cytotoxicity toward HT-29 cells – cell-based, CellTiter-Glo luminescence, IC50, dose response (AID 1117330); format: functional
# [4] = Concentration-dependent survival of SW480 colon cancer line, luminescence detection with CellTiter-Glo, half-maximal inhibitory concentration (AID 1117338); format: functional
# [5] = cytotoxicity toward HCT116 cells – cell-based, CellTiter-Glo luminescence, IC50, dose response (AID 1117332); format: functional; settings: HCT-116
# [6] = CellTiter-Glo luminescent dose response of DLD-1 viability loss (AID 1117352); format: functional
# [7] = HeLa 2N DNA content increase, dose response, cell-based, IC50 (AID 1117349); format: functional
# Galanin receptor type 3 = Galanin receptor type 3 (Homo sapiens, UniProt O60755); assay: Fluorescence-based cell-based primary high throughput dose response assay to identify antagonists of the Galanin Receptor 3 (GalR3).; format: functional
# [8] = Shn3 3'UTR reporter inhibitors, dose response, cell-based, Clone20 osteoblasts, firefly luciferase, cherry-picked (AID 624132); format: functional;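 note: firefly luciferase luminescence from reporter carrying the Shn3 3'UTR in osteoblasts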
# [9] = HepG2 cell cytotoxicity, dose response, cytotoxicity control for Shn3 inhibitor project, CellTiter-Glo, cherry-picked (AID 624134); format: functional, cell-based
# [10] = cytotoxicity toward Colo320 cells – cell-based, CellTiter-Glo luminescence, IC50, dose response (AID 1117334); format: functional; settings: COLO 320
# [11] = HeLa 4N DNA content increase, dose response, cell-based, IC50 (AID 1117351); format: functional
# cells = format: functional, cell-based; settings: HEK-CNG
# [12] = biological target: COUP transcription factor 2 (Homo sapiens, UniProt P24468); assay: Luminescence-based cell-based high throughput dose response assay to identify inhibitors of COUP-TFII (NR2F2).; format: functional;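 note: HEK293 cells transiently cotransfected with COUP-TFII expression vector and reporter; luciferase reporter luminescence driven by COUP-TFII from the pX2-168 reporter plasmid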
# [13] = biological target: Botulinum neurotoxin type F (Clostridium botulinum, UniProt P30996); assay: High-throughput multiplex microsphere dose response for inhibitors of toxin protease, specifically Botulinum neurotoxin light chain F protease, compounds from Cherry Pick 02.; format: functional; settings: read-out: EC50_MICROM
# H9c2 = assay: cells; format: functional, cell-based; settings: Rattus norvegicus, H9c2, Myocardium;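 note: confirmatory concentration-response retest of ultra-high-throughput screening hits for modulation of myocardial damage; cell death induced by hydrogen peroxide oxidative stress; compound pretreatment for 60 min then peroxide exposure for 2 h; potency is for protecting the cells against peroxide damage rather than for killing them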
# Protein Wnt-3a = Protein Wnt-3a (Mus musculus, UniProt P27467); assay: SAR analysis of small molecule antagonists of Gli-SUFU in a Wnt3a luminescent reporter assay.; format: functional
# [14] = IGROV1 ovarian cancer cell cytotoxicity, dose response, PAX8 inhibitor project, plate reader, dry powder samples (AID 743043); format: functional, cell-based; settings: IGROV-1
# Paired box protein Pax-8 = Paired box protein Pax-8 (Homo sapiens, UniProt Q06710); assay: inhibitors of PAX8-driven TPO luciferase reporter, dose response, RMG-I cells, cherry-pick (AID 687027); format: functional, cell-based;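 note: luciferase reporter driven by Pax8 target thyroperoxidase promoter measured by SteadyGlo luminescence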
# [15] = inhibitors of clade B AD8 Env fusion, dose response, cell-based, cherry-pick (AID 652062); format: functional;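 note: luciferase signal from cell-cell fusion driven by HIV-1 clade B AD8 Env; potency is for inhibitors of fusion seen as a drop in luminescence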
# [16] = off-target signal loss in HeLa-CEM21 co-culture – HeLa F-luc CTL cells, cherry-picked, counter-screen for HIV-1 Env fusion inhibitor project, dose response (AID 652040); format: functional, cell-based;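 note: potency for signal decrease marking cytotoxic or nonspecific inhibition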
# [17] = inhibitors of HIV Env-driven cell fusion, dose response, cherry-pick (AID 652057); format: functional, cell-based
# [18] = ZM109 Env clade C HIV-1 fusion inhibitors, dose response, HeLa effector, CEM target cells, luciferase, cherry-pick (AID 652058); format: functional, cell-based
# Chain of Galanin receptor type 3 (O60755 whole entry): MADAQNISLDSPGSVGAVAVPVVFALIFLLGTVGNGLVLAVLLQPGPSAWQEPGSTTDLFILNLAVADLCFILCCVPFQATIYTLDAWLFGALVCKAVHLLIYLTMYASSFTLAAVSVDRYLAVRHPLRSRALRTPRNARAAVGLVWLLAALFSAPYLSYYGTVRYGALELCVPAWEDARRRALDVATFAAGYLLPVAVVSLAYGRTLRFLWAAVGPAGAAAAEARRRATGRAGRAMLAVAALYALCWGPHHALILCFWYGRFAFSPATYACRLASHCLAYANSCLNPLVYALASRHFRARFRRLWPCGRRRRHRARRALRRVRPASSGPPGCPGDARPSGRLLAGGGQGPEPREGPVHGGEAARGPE
# Chain of Botulinum neurotoxin type F (P30996 1-436 limits assumed): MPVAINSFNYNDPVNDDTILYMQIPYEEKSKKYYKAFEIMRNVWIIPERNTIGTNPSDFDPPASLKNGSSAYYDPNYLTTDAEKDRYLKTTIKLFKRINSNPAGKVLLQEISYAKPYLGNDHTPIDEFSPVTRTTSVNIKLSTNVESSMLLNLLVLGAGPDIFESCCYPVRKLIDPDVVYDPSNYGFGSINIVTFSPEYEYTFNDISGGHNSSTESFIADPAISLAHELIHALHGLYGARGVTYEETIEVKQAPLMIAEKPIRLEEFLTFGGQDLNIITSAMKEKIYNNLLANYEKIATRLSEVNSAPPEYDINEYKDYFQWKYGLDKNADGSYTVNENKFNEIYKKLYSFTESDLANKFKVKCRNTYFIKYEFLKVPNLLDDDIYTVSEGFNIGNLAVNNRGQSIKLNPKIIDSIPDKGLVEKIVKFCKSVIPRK
# Chain of Protein Wnt-3a (P27467 whole entry): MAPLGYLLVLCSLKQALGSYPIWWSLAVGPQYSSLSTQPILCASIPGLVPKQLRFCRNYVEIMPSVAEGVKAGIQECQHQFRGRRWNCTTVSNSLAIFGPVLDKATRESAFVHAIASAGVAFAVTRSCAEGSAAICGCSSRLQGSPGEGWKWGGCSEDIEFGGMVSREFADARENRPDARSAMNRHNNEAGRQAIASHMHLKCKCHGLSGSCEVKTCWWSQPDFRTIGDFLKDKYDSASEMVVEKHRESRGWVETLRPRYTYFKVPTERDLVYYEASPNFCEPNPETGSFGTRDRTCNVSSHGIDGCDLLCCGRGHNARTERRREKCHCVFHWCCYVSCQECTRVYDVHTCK
# Chain of COUP transcription factor 2 (P24468 whole entry): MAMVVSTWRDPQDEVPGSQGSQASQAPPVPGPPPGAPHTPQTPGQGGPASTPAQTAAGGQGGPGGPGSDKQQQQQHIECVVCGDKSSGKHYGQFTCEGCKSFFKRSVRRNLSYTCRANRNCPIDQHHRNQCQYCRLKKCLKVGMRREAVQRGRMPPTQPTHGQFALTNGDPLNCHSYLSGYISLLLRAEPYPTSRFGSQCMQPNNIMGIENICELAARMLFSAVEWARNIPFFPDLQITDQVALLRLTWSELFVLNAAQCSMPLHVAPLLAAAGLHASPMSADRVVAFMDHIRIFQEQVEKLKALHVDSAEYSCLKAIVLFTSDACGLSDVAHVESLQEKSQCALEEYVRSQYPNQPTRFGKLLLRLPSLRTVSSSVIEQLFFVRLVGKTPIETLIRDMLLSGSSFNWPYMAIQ
# Chain of Paired box protein Pax-8 (Q06710 whole entry, the tested form may be a part): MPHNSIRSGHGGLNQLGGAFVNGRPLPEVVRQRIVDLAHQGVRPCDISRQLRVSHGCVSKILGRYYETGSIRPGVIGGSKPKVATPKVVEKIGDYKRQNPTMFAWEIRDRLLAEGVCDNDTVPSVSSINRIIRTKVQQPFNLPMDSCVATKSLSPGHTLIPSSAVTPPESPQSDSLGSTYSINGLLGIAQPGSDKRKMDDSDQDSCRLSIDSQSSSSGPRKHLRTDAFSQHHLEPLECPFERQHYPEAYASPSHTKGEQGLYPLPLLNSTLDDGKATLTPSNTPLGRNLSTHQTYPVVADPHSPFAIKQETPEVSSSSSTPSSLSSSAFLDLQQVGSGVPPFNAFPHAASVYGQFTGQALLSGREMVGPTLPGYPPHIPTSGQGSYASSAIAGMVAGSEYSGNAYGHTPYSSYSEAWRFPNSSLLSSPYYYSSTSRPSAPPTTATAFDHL
structure (smiles),measurement,setting,value
CC1CCOC(c2coc3ccccc3c2=O)O1 (centres undefined),AC50,Vero,24.2 µM (active)
Cc1nc2ccccc2n1Cc1ccc(Cl)cc1 [CHLORMIDAZOLE],IC50,[1],> 20 µM (inactive)
same,AC50,[2],28.2 µM (active)
same,IC50,[3],> 20 µM (inactive)
same,IC50,[4],5.33 µM (inactive)
same,IC50,[5],1.22 µM (active)
same,IC50,[6],> 20 µM (inactive)
same,IC50,[7],> 10 µM (inactive)
same,IC50,Galanin receptor type 3,203 nM (active)
same,AC50,[8],1.46 µM (active)
same,AC50,[9],2.79 µM (active)
same,IC50,[10],15.2 µM (inactive)
same,IC50,[11],> 10 µM (inactive)
same,EC50,cells,> 29.9 µM (inactive)
same,IC50,[12],10.6 µM (inactive)
COc1ccc(-c2oc3c(OC)c(OC)c(OC)c(O)c3c(=O)c2OC)cc1OC,EC50,[13],> 20 µM (inactive)
same,IC50,H9c2,> 79 µM (inactive)
CN(C)c1cc(NC(=O)c2cccc(C#N)c2)ncn1,IC50,Protein Wnt-3a,> 21.8 µM (inactive)
C[C@H]1CCCCO[C@H](CN(C)C(=O)C2CCCCC2)[C@@H](C)CN([C@@H](C)CO)C(=O)c2cc(NC(=O)Nc3ccc(F)cc3)ccc2O1,AC50,[14],57.6 µM (active)
same,AC50,Paired box protein Pax-8,8.1 µM (active)
CCC(NS(=O)(=O)c1c(C)nc(O)nc1O)C12CC3CC(CC(C3)C1)C2 (centres undefined),AC50,[15],7.16 µM (active)
same,AC50,[16],11.8 µM (active)
same,AC50,[17],7.48 µM (active)
same,AC50,[18],7.79 µM (active)

# Reference: ChEMBL document CHEMBL1201862, “PubChem BioAssay data set” (2004)
